Values of other authors in patent publication US5665760A, “Lyophilized thioxanthenone antitumor agents” (priority 1995, dated 1997).

Settings: excipient alone; cited from earlier work

OC[C@H]1O[C@@](CO)(O[C@H]2O[C@H](CO)[C@@H](O)[C@H](O)[C@H]2O)[C@@H](O)[C@@H]1O [sucrose]
glass transition temperature of excipient: -32 °C
